Measurements reported in patent US8143307B2, “Benzothiophen-2-carbonylguanidine derivatives, preparation thereof, and pharmaceutical composition containing the same” (Korea Research Institute of Chemical Technology, priority 2004, dated 2012).

Experiments:
Human NHE-1 = biological target: T1, Human NHE-1 (Homo sapiens, UniProt P19634); assay: Inhibitory effect on NHE-1 in PS120/NHE-1 cells (recovery from intracellular acidosis, BCECF fluorescence); assay type: cell-based; settings: human NHE-1 expressed PS120 cells; concentration at which recovery from intracellular acidosis was 50% inhibited
T1 construct: expressed in transfected cells; host or cells: CCL39-derived PS120 cells (PS120/NHE-1)
Procedure: The benzothiophen-2-carbonylguanidine derivatives of the present invention were examined for NHE-1 inhibitory effect in cells according to the following procedure.
Human NHE-1 was expressed in CCL39-derived PS120 cells. These human NHE-1 expressed cells were cultured in DMEM (Dulbecco's modified Eagle's medium) supplemented with 10% fetal bovine serum, 1% penicillin/streptomycin (100× solution), 1% L-glutamine (200 mM aqueous solution). The PS120/NHE-1 cells grown in 100 mm dishes were treated with trypsin at 80-90% confluency, followed by washing with PBS (phosphate buffer saline) once, and then once with an Na-free buffer (138.2 mM Choline chloride, 4.9 mM KCl, […]. 2H2O, 1.2 mM MgSO4.7H2O, 1.2 mM KH2PO4, 15 mM D-glucose, 20 mM HEPES, at pH 7.4). After centrifugation, the pellet was suspended in an Na-free buffer containing 20 mM NH4Cl and 10 μM BCECF-AM [2′,7′-bis(2-carboxyethyl)-5,6-carboxy-fluorescein acetoxymethyl ester] and incubated at 37° C. for 30 min in a CO2 incubator. After being harvested by centrifugation, the PS120/NHE-1 cells were washed once with an Na-free buffer to remove both NH4Cl and extracellular BCECF-AM, suspended at a density of 2.5×10^4 cells/10 μl and stored at 4° C. in a dark room until reuse. In each well of 96-well microplates, 180 μl of HBS (137 mM NaCl, 4.9 mM KCl, 1.5 mM CaCl2. 2H2O, 1.2 mM MgSO4.7H2O, 1.2 mM KH2PO4, 15 mM D-glucose, 20 mM HEPES, at pH 7.4) and 10 μl of DMSO or 10 μl of a solution of the compound (0.03˜10 μM) of the present invention in DMSO were placed and well mixed, after which 10 μl aliquots of the intracellular acidosis-induced PS120/NHE-1 cells were added thereto. 4 min after the cell addition, fluorescence (excitation: 485/444 nm, emission: 535 nm) was measured in the GEMINI-XS Microplate Spectrofluorometer (Molecular Devices). The fluorescence measured was converted into pH values using a high-K^+/nigericin technique. The cells in which intracellular acidosis was induced with NH4Cl prepulses, were recovered to normal pH values through the operation of NHE-1. The inhibitory effect of the compound against NHE-1 was evaluated as concentrations at which the recovery from the intracellular acidosis to a normal state was 50% inhibited (IC50 values), with cariporide used as a control.

[1] = system: isolated ischemic rat heart; assay: Cardioprotective effect in isolated ischemic rat heart model (Langendorff); settings: 10 μM, 30 min global ischemia, 30 min reperfusion
Procedure: Male rats (300 450 g, the Korea Research Institute of Chemical Technology, Experimental Animal Lab) were anesthetized by intraperitoneal injection with sodium pentobarbital at a dose of 100 mg/kg and were intravenously administered with heparine at a dose of 1000 U/kg, followed by the excision of the heart. In detail, a tracheotomy was performed and a tracheal cannula (PE 240) was inserted into the trachea for subsequent artificial ventilation with room air using a rodent ventilator. […] A catheter tip manometer connected to a latex balloon filled with a mixture of ethanol and distilled water (1:1 v/v) was inserted via an incision in the left atrium into the left ventricle, and the intraventricular pressure thereof transmitted to the latex balloon was measured isovolumetrically with a transducer and recorded on a recording system (Linearcorder mark 8 WR 3500) with the aid of an amplifier (Plugsys bridge amplifier). After stabilizing the heart for 15 min, the balloon volume was adjusted to create a left ventricular end-diastolic pressure (LVEDP) of 5 mmHg during the initial baseline period. The volume of the balloon was maintained until the end of the experiment. Baseline heart contraction function, spontaneous heart rate (HR) and coronary flow (CF) were determined from the left ventricular contraction interval. The left ventricular developed pressure (LVDP), which is regarded as an index of contractile function of the isolated heart, was calculated by subtracting left ventricular end-diastolic pressure (LVEDP) from left ventricular peak systolic pressure (LVSP). In contrast to the heart in the body, the Langendorff heart cannot be measured for cardiac output and thus, RPP (rate-pressure product), which is an important indirect indicator for cardiac performance, was calculated by multiplying heart rate (HR) by LVDP. Throughout the experiment, the temperature of the heart was maintained constant by […] in a 37° C. physiological solution to which 95% O2/5% CO2 was continuously supplied. The heart thus stabilized was perfursed for 10 min with a solution of the compounds of the invention or control drugs in DMSO (dimethylsulfoxide) diluted with HBS (final DMSO conc. 0.04%), or with the solvent only (a negative control; 0.04% DMSO) and then measured again for contractile function, heart rate (HR) and coronary flow (CF). The supply of perfusates was completely stopped for 30 min in order to induce global ischemia in the heart, followed by reperfusion for 30 min. The indices (LVDP, HR, LVEDP, and CF) were measured again. After the reperfusion, the total level of lactate dehydrogenase (LDH) in the reperfusates was measured using a kit and taken as an index of ischemic myocardial injury. A negative control group was treated with the solvent only while cariporide was used as a positive control.

T1 sequence (P19634 whole entry): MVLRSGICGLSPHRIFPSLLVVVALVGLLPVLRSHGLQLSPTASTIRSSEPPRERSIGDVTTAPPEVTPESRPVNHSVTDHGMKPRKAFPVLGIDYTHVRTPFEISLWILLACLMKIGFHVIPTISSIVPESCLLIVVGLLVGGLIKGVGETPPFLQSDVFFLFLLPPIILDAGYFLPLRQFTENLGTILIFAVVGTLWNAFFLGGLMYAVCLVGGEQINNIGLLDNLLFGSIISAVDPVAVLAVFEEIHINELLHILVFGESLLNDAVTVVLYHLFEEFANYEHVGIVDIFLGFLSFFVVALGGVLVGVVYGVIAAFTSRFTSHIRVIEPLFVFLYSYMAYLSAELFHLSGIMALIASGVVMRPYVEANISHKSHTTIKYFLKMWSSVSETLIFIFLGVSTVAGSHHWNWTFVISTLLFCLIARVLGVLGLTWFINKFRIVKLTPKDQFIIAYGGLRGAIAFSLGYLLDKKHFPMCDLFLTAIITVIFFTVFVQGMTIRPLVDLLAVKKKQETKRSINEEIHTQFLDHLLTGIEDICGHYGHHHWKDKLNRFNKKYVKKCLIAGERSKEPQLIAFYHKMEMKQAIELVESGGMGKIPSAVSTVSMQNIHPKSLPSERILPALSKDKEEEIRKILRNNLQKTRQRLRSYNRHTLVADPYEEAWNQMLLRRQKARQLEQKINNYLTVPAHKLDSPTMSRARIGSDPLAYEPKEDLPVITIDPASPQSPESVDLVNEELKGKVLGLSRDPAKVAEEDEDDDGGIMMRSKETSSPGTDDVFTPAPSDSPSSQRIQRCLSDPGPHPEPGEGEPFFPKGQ

CS(=O)(=O)O.NC(N)=NC(=O)c1cc2c(Br)cccc2s1 [Example 1, (4-Bromobenzothiophene-2-Carbonyl)Guanidine Methanesulfonate]
IC50 (Human NHE-1): 0.2 µM | LVEDP (left ventricular end-diastolic pressure) [1]: 34.0 mmHg | RPP (rate-pressure product (LVDP × HR) % relative to the value before ischemia induction) [1]: 54.7%

CS(=O)(=O)O.NC(N)=NC(=O)c1cc2c(-c3cc(Cl)cc(Cl)c3)cccc2s1 [Example 19, [4-(3,5-Dichlorophenyl)Benzothiophene-2-Carbonyl]Guanidine Methanesulfonate]
IC50 (Human NHE-1): 0.68 µM | LVEDP (left ventricular end-diastolic pressure) [1]: 64.4 mmHg | RPP (rate-pressure product (LVDP × HR) % relative to the value before ischemia induction) [1]: 19.1%

CS(=O)(=O)O.NC(N)=NC(=O)c1cc2c([N+](=O)[O-])cccc2s1 [Example 39, (4-Nitrobenzothiophene-2-Carbonyl)Guanidine Methanesulfonate]
IC50 (Human NHE-1): 2.34 µM | LDH (free LDH level upon reperfusion) [1]: 10.8 u/g | LVEDP (left ventricular end-diastolic pressure) [1]: 11.3 mmHg | RPP (rate-pressure product (LVDP × HR) % relative to the value before ischemia induction) [1]: 73.3%

CS(=O)(=O)O.NC(N)=NC(=O)c1cc2c(Cl)cccc2s1 [Example 32, (4-Chlorobenzothiophene-2-Carbonyl)Guanidine Methanesulfonate]
IC50 (Human NHE-1): 0.2 µM | LDH (free LDH level upon reperfusion) [1]: 8.8 u/g | LVEDP (left ventricular end-diastolic pressure) [1]: 25.3 mmHg | RPP (rate-pressure product (LVDP × HR) % relative to the value before ischemia induction) [1]: 60.8%

CS(=O)(=O)O.Cc1ccc2sc(C(=O)N=C(N)N)cc2c1Br [Example 45, (4-Bromo-5-Methylbenzothiophene-2-Carbonyl)Guanidine Methanesulfonate]
IC50 (Human NHE-1): 0.29 µM | LDH (free LDH level upon reperfusion) [1]: 22.5 u/g | LVEDP (left ventricular end-diastolic pressure) [1]: 41.8 mmHg | RPP (rate-pressure product (LVDP × HR) % relative to the value before ischemia induction) [1]: 50.4%

N=C(N)NC(=O)c1cc2c(I)cccc2s1 [Example 34, (4-Iodobenzothiophene-2-Carbonyl)Guanidine Methanesulfonate]
IC50 (Human NHE-1): < 0.5 µM | LDH (free LDH level upon reperfusion) [1]: 7.1 u/g | LVEDP (left ventricular end-diastolic pressure) [1]: 19.0 mmHg | RPP (rate-pressure product (LVDP × HR) % relative to the value before ischemia induction) [1]: 65.8%

CS(=O)(=O)O.Cc1cccc2sc(C(=O)N=C(N)N)cc12 [Example 35, (4-Methylbenzothiophene-2-Carbonyl)Guanidine Methanesulfonate]
IC50 (Human NHE-1): 0.48 µM | LVEDP (left ventricular end-diastolic pressure) [1]: 38.0 mmHg | RPP (rate-pressure product (LVDP × HR) % relative to the value before ischemia induction) [1]: 40.4%

CS(=O)(=O)O.Cc1ccc2sc(C(=O)N=C(N)N)cc2c1C [Example 47, (4,5-Dimethylbenzothiophene-2-Carbonyl)Guanidine Methanesulfonate]
IC50 (Human NHE-1): 0.75 µM | LDH (free LDH level upon reperfusion) [1]: 21.2 u/g | LVEDP (left ventricular end-diastolic pressure) [1]: 25.0 mmHg | RPP (rate-pressure product (LVDP × HR) % relative to the value before ischemia induction) [1]: 59.3%

CS(=O)(=O)O.NC(N)=NC(=O)c1cc2c(F)cccc2s1 [Example 33, (4-Fluorobenzothiophene-2-Carbonyl)Guanidine Methanesulfonate]
IC50 (Human NHE-1): 1.73 µM | LDH (free LDH level upon reperfusion) [1]: 7.0 u/g | LVEDP (left ventricular end-diastolic pressure) [1]: 37.7 mmHg | RPP (rate-pressure product (LVDP × HR) % relative to the value before ischemia induction) [1]: 46.6%

C=Cc1cccc2sc(C(=O)N=C(N)N)cc12.CS(=O)(=O)O [Example 36, (4-Vinylbenzothiophene-2-Carbonyl)Guanidine Methanesulfonate]
IC50 (Human NHE-1): 0.31 µM | LDH (free LDH level upon reperfusion) [1]: 13.1 u/g | LVEDP (left ventricular end-diastolic pressure) [1]: 42.0 mmHg | RPP (rate-pressure product (LVDP × HR) % relative to the value before ischemia induction) [1]: 51.0%

CS(=O)(=O)O.NC(N)=NC(=O)c1cc2c(-c3ccc(F)c(Cl)c3)cccc2s1 [Example 23, [4-(3-Chloro-4-Fluorophenyl)Benzothiophene-2-Carbonyl]Guanidine Methanesulfonate]
IC50 (Human NHE-1): 2.48 µM | LDH (free LDH level upon reperfusion) [1]: 8.8 u/g | LVEDP (left ventricular end-diastolic pressure) [1]: 68.0 mmHg | RPP (rate-pressure product (LVDP × HR) % relative to the value before ischemia induction) [1]: 5.9%

NC(N)=NC(=O)c1cc2c(-c3cccc(F)c3F)cccc2s1 [Example 26, [4-(2,3-Difluorophenyl)Benzothiophene-2-Carbonyl]Guanidine Methanesulfonate]
IC50 (Human NHE-1): 8.93 µM

Cc1ccc(-c2cccc3sc(C(=O)N=C(N)N)cc23)cc1 [Example 10, [4-(4-Methylphenyl)Benzothiophene-2-Carbonyl]Guanidine Methanesulfonate]
IC50 (Human NHE-1): > 30 µM
